Five molecules from patent publication US10149836B2, “Isoxazole treatments for frontotemporal dementia” (The Board of Regents of the University of Texas System, priority 2014, dated 2018) can be followed below.

The subject of one assay is progranulin promoter. As to the kind of experiment: Luciferase reporter assay in Neuro2A #48 cells (human GRN start codon fused to firefly luciferase). Type of assay: cell-based, mouse. As to conditions: for Luciferase activity over DMSO control: Neuro2A #48 cells, 24 hrs after compound addition, increasing concentrations. The protocol:
Plasmids and Cell Lines. The firefly luciferase coding sequence was fused by bacterial recombination to the authentic human GRN start codon in exon 2 (NM_002087.2) on a bacterial artificial chromosome (BACPAC RP11-812N09), and stably transfected Neuro-2a cells were derived.
Library Screening and Luciferase Reporter Assays. Neuro-2a cells were assayed in 384-well plates (3000 cells/well). 6 hrs after cell plating, 1200 Prestwick Chemical Library® compounds in DMSO, including internal controls, were dispensed using a BioMek FX system to final concentrations of 2.5 μM compound and 1% DMSO (unless indicated otherwise). Sodium butyrate (9 mM) was used as a positive control on each plate for initial screening. Luciferase activity was measured 24 hr after compound addition using Bright-Glo™ reagent (20 μl/well; Promega). Each well was normalized to the average luminescence from DMSO-treated wells on the same plate.
Technical details of HTS screen. Cell type used: Neuro-2a #48 cell line was cultured in DMEM (High glucose)/10%FBS/Pen-Strep/Zeocin (200 μg/mL) and plated in same media without Zeocin. All media is sterile filtered before use. The firefly luciferase coding sequence was fused by bacterial recombination to the authentic human GRN start codon in exon 2 (NM_002087.2) on a bacterial artificial chromosome (BACPAC RP11-812N09), and stably transfected Neuro-2a cells were derived (Cenik et al., 2011). Cells are put into single cell suspension and strained with 70 μm cell strainers before counting. The concentration of cells is adjusted to 150,000 cells/ml.
384 well plates were used for the assay: 50 μL of the cell suspension are added to each well for a final cell number per well of 7,500. Plates are spun down after plating and incubated at 37° C. under 5% CO2. Compound addition takes place 4 hours after plating. Test compounds are in columns 3-22. The vehicle control wells are in columns 2 and 23. The positive control, SAHA (3 μM), is plated in column 1 An untreated control (no DMSO) is in column 24. The plates are assayed for reporter activity 24 hrs after compound addition. All media is spun out of the plates and 20 μL of bright glo is added to each well and placed on shaker for 3-5 minutes. After shaking, plates are read and check from increases in activation over DMSO. Vehicle (DMSO) was used for baseline because it causes a slight activation of luciferase construct. […] All compounds were added from DMSO stocks and added at 0.5 μL per well (1% DMSO). All plates are read on an EnVision multilabel plate reader in luminescence mode. The data is then parsed into GeneData Screener v11 and quality controlled visually. Z′ values are calculated using the DMSO and SAHA controls. Plates that have a Z′ value less than 0.45 are further scrutinized. If the latter show systematic effects or if known errors occurred in these plates, they are repeated in a separate experiment. Data are then normalized and analyzed as previously described (Kim et al., 2013).
Background: In a reporter assay the amount or activity of a reporter protein is the signal.

Assay [1] relates to Progranulin. As to the kind of experiment: Progranulin protein expression in primary rat neurons (immunoblot, densitometric quantitation). The following applies: 24 hours, two concentrations. The class given is cell-based. The protocol:
FIGS. 1A-B. Neuro2A #48 cells show a marked increase in Progranulin levels due to Isoxazole treatment after 24 hours. (FIG. 1A) Cells were treated with Isoxazole in increasing concentrations ranging from 10 nM to 25 μM. […] (FIG. 1B) Primary rat neurons were treated for 24 hours with DMSO and two concentrations of Isoxazole to visualize the increase in Progranulin protein expression in the relevant in vivo cell type. […] Lower band: actin control. Bands at ˜75 kDa: Progranulin monomer. HMW bands: Progranulin multimers. Densitometric quantitation is shown on the right.
Immunoblotting and Quantification. […] Mouse progranulin was detected with linker-3 anti-progranulin antibody at 1:5000 dilution, β-actin with anti-β-actin antibody (Sigma A2228) at 1:5000 dilution, human progranulin with anti-PC cell-derived growth factor antibody (Invitrogen) at 1:1000 dilution, and GAPDH with anti-GAPDH antibody (Sigma) at 1:10,000 dilution. Bound IgG was detected by ECL. For quantitative immunoblotting, secondary antibodies labeled with IRDye® infrared dyes and an Odyssey® infrared imager (LI-COR Biosciences) were used following the manufacturer's instructions.
In general terms: Immunoblotting shows a protein as a band on a membrane.

Assay [2] has as its system progranulin. Nature of the assay: RT PCR of progranulin mRNA and pre-mRNA in Neuro2A cells. The class given is cell-based, mouse. The following applies: 48 hours, increasing concentrations. The protocol:
FIG. 2. Neuro2A cells were treated for 48 hours with increasing concentrations of Isoxazole. RT PCR was conducted to measure increases in progranulin mRNA and pre-mRNA (hnRNA before splicing).
RNA Extraction and Quantitative PCR. Cells in 6-well plates were lysed in 500 μl of TRIzol® reagent/well. cDNA was reverse-transcribed with MultiScribe™ (Applied Biosystems). For some experiments, the Quick-RNA MiniPrep system (Zymo Research, Irvine, Calif.) was used to isolate total RNA. Primer sequences were as follows:
Quantitative PCRs (qPCRs; 10 μl) contained 20 ng of cDNA, 150 nM primer, and 5 μl of Fast SYBR Green PCR Master Mix (Applied Biosystems) and were performed in triplicate on an Applied Biosystems PRISM 7500 Fast sequence detection system. Relative mRNA levels were calculated using U36B or cyclophilin Q primers as internal controls.

In the next assay the test system is progranulin (PGRN). As to the kind of experiment: Progranulin (PGRN) protein expression in Neuro2a whole cell lysates by immunoblotting. Type of assay: cell-based, mouse. As to conditions: Neuro2a cells, 48 hours; for PGRN levels compared to DMSO: highest concentrations, N=4; for progranulin protein levels by immunoblotting: increasing doses, whole cell lysates. The protocol:
FIG. 6. Protein analysis using immuoblotting. Neuro2a cells were treated with in increasing doses for 48 hours and whole cell lysates were analyzed for progranulin (PGRN) protein expression using immunobloting. N=4.
FIG. 7. Graphical analysis of protein quantification using immunoblotting. Whole cell lysates were analyzed for progranulin (PGRN) protein expression using immunoblotting and were graphically plotted to show changes in band intensity. PGRN levels doubled compared to DMSO at the highest concentrations. N=4.
Immunoblotting and Quantification. Cells were lysed in radioimmune precipitation assay buffer (50 mM Tris-HCl (pH 7.4), 150 mM NaCl, 1 mM EDTA, 1% Triton X-100, 1% sodium deoxycholate, 0.1% SDS, and Roche Complete protease inhibitor mixture) and cleared by centrifugation at 20,000×g for 10 min. 0.5-ml cell culture supernatants containing 1% FBS were concentrated by centrifugation at 14,000×g for 50 min in Millipore Amicon Ultra devices (3-kDa cutoff). 15-20 μg of total protein was separated by SDS-PAGE and transferred to nitrocellulose membranes. Membranes were blocked in 5% milk for 1 hr and probed overnight with primary antibodies at 4° C. Mouse progranulin was detected with linker-3 anti-progranulin antibody at 1:5000 dilution, β-actin with anti-β-actin antibody (Sigma A2228) at 1:5000 dilution, human progranulin with anti-PC cell-derived growth factor antibody (Invitrogen) at 1:1000 dilution, and GAPDH with anti-GAPDH antibody (Sigma) at 1:10,000 dilution. Bound IgG was detected by ECL. For quantitative immunoblotting, secondary antibodies labeled with IRDye® infrared dyes and an Odyssey® infrared imager (LI-COR Biosciences) were used following the manufacturer's instructions.

In a further assay the test system is Progranulin MEF cells. Nature of the assay: Lysosome rescue (lysotracker) in Progranulin MEF cells. Type of assay: cell-based, mouse. The following applies: one concentration, one trial. The protocol: FIGS. 8A-8F. Dose Tested for Lysosome Rescue. Progranulin MEF cells were treated with 1 concentration each of C15 and C19 and levels of lysotracker were analyzed to look for reduction of lysosome levels back to wild type levels. The stained area per cell is measured for compound C15 (FIG. 8A) and C19 (FIG. 8B), area intensity for compound C15 (FIG. 8C) and C19 (FIG. 8D), and total number of lysosomes for compound C15 (FIG. 8E) and C19 (FIG. 8F).
Progranulin MEF cells were treated with one aliquot each of C15 and C19 and levels of lysotracker were analyzed to look for reduction of lysosome levels back to wild type levels.

As for `O=C(CCCCCCC(=O)Nc1ccccc1)NO` [SAHA, reference compound], the “Activation of luciferase reporter relative to base line (DMSO)” value in the assay with progranulin promoter (Neuro-2a #48 cells, SAHA 3 μM positive control, 24 hrs) was 4-5 times base line.

Consider `CCCCCCCCCCCCC/C=C/[C@@H](O)[C@@H](N)COP(=O)([O-])OCC[N+](C)(C)C` [sphingosinephosphorylcholine, reference compound], for which, in the assay on progranulin promoter, the “Luciferase activity over DMSO control” value is listed as “increasing levels of luciferase activity over DMSO control”.

As to `c1cnoc1` [Isoxazole], the “Luciferase activity over DMSO control” value in the assay on progranulin promoter is reported as “significant increase over control”. In the assay with Progranulin [1], the “Progranulin protein levels vs DMSO control” value is given as “significant increase over the DMSO control”. Besides, in the assay on progranulin [2], the “progranulin mRNA” value is “significant increases in a dose dependent manner” and the “progranulin pre-mRNA (hnRNA before splicing)” value is reported as “significant increases in a dose dependent manner”.

With `CC(C)(C)c1cc2c(c(C(C)(C)C)c1)OC(c1cccc([N+](=O)[O-])c1O)N2` (stereo not shown) [Compound C19], the “Luciferase activity over DMSO control” value in the assay with progranulin promoter is on record as “only a small change”. Also, in the assay on progranulin (PGRN), the “PGRN levels compared to DMSO” value is on record as “doubled” and the “progranulin protein levels by immunoblotting” value is on record as “increased progranulin protein levels”. Moreover, in the assay with Progranulin MEF cells, the “lysosome levels (lysotracker)” value was “marked decrease in lysosome levels”.

With `COc1ccccc1C(=O)NNC1C(=O)Nc2ccccc21` (stereo not shown) [Compound C15], in the assay on progranulin promoter, the “Luciferase activity over DMSO control” value was “dose dependent increase in luciferase activity”. Further, in the assay with progranulin (PGRN), the “PGRN levels compared to DMSO” value was “doubled” and the “progranulin protein levels by immunoblotting” value is listed as “increased progranulin protein levels”.
